Legend:
[1] = molecular target: Serine/threonine-protein kinase PAK 6 (Homo sapiens) (UniProt Q9NQU5); assay: Selectivity interaction (KinomeScan (DiscoverX)) EUB0000595a PAK6; conditions: at 10 µM
[2] = molecular target: T1, Atypical kinase COQ8B, mitochondrial (Homo sapiens) (UniProt Q96D53); assay: Selectivity interaction (KinomeScan (DiscoverX)) EUB0000595a ADCK4; conditions: at 10 µM
T1 sequence (whole entry): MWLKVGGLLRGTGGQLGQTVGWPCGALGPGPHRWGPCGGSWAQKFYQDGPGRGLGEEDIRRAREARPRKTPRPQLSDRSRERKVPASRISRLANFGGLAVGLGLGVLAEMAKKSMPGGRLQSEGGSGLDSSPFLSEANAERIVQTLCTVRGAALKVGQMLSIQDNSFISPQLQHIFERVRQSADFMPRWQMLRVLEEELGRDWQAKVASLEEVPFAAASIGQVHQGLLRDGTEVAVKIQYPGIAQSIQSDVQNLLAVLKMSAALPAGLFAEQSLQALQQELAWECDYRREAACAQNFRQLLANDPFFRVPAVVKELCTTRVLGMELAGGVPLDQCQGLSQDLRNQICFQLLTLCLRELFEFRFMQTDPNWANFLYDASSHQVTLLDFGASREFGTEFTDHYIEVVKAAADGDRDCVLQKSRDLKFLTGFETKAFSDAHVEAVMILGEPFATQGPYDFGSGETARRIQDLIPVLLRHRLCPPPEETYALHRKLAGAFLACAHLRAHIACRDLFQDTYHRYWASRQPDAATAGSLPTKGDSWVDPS

[3] = molecular target: Mitogen-activated protein kinase kinase kinase kinase 1 (Homo sapiens) (UniProt Q92918); assay: Selectivity interaction (LanthaScreen Eu Kinase Binding Assay) EUB0001632a MAP4K1; conditions: at 10 µM
Sequence of Mitogen-activated protein kinase kinase kinase kinase 1 (Homo sapiens) (Q92918 whole entry, looked up, the tested form may be a part): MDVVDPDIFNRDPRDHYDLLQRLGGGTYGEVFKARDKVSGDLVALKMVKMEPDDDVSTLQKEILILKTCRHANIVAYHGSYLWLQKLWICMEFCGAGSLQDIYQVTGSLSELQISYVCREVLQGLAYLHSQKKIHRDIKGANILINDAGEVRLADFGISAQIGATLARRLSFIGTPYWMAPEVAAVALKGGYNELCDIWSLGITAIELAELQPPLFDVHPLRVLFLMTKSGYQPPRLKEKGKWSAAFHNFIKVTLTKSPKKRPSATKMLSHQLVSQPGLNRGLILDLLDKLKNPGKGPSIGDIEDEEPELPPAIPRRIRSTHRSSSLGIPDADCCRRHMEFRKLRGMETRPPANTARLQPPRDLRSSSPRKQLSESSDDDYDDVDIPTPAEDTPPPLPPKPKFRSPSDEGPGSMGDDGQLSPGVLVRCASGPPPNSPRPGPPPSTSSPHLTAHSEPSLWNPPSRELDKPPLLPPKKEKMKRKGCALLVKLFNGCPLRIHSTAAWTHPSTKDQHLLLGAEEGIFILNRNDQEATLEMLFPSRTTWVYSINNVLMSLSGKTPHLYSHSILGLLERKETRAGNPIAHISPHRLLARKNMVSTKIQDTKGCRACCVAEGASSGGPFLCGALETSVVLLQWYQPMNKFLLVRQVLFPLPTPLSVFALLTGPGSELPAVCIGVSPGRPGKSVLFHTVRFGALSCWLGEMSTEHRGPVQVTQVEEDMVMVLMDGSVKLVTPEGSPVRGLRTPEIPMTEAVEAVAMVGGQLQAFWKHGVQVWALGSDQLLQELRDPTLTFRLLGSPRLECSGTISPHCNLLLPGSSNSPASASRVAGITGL

[4] = molecular target: T2, Ankyrin repeat and protein kinase domain-containing protein 1 (Homo sapiens) (UniProt Q8NFD2); assay: Selectivity interaction (LanthaScreen Eu Kinase Binding Assay) EUB0001632a ANKK1; conditions: at 10 µM
T2 sequence (whole entry): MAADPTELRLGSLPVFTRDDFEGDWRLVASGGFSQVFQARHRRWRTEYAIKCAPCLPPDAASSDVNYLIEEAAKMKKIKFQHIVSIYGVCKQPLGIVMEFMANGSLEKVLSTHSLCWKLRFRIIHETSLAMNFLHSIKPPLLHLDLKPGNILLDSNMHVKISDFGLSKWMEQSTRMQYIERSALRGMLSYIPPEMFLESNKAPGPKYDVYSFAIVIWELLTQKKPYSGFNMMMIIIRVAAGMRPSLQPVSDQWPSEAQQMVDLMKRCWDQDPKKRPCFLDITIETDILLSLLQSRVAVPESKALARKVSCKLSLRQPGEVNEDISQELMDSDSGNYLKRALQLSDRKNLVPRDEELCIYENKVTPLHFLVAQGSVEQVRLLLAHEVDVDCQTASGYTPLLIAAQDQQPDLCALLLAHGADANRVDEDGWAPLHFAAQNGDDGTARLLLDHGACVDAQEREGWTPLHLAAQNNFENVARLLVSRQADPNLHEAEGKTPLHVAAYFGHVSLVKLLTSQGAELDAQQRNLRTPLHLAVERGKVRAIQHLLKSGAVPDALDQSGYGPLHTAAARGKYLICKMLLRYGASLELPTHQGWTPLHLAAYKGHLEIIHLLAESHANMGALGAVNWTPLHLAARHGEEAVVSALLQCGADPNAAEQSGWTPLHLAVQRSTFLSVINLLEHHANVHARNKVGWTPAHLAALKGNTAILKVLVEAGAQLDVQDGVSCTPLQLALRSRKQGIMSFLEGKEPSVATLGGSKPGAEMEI

[5] = molecular target: Ribosomal protein S6 kinase alpha-3 (Homo sapiens, UniProt P51812); assay: Selectivity interaction (KinomeScan (DiscoverX)) EUB0000666a RPS6KA3; conditions: at 10 µM
Sequence of Ribosomal protein S6 kinase alpha-3 (P51812 whole entry): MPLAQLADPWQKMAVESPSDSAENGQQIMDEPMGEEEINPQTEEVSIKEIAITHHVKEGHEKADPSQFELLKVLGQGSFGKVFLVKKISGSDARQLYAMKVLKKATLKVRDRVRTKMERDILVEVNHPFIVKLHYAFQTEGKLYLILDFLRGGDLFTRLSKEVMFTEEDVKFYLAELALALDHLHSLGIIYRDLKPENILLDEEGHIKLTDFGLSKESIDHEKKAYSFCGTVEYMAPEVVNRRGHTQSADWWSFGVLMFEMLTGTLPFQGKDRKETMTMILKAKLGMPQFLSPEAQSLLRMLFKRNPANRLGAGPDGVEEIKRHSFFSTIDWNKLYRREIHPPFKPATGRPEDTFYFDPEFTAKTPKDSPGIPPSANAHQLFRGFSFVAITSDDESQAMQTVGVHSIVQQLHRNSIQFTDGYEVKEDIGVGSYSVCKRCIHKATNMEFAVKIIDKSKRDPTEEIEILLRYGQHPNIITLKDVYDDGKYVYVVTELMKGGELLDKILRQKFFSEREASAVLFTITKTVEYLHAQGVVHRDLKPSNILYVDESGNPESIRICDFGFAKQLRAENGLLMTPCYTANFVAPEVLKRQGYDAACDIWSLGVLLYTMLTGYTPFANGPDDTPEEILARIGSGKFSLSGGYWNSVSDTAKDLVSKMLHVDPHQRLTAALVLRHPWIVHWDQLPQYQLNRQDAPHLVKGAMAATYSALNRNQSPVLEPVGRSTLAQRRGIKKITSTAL

[6] = molecular target: T3, Mitogen-activated protein kinase kinase kinase 12 (Homo sapiens) (UniProt Q12852); assay: Selectivity interaction (KinomeScan (DiscoverX)) EUB0001049a MAP3K12; conditions: at 1 µM
T3 sequence (whole entry): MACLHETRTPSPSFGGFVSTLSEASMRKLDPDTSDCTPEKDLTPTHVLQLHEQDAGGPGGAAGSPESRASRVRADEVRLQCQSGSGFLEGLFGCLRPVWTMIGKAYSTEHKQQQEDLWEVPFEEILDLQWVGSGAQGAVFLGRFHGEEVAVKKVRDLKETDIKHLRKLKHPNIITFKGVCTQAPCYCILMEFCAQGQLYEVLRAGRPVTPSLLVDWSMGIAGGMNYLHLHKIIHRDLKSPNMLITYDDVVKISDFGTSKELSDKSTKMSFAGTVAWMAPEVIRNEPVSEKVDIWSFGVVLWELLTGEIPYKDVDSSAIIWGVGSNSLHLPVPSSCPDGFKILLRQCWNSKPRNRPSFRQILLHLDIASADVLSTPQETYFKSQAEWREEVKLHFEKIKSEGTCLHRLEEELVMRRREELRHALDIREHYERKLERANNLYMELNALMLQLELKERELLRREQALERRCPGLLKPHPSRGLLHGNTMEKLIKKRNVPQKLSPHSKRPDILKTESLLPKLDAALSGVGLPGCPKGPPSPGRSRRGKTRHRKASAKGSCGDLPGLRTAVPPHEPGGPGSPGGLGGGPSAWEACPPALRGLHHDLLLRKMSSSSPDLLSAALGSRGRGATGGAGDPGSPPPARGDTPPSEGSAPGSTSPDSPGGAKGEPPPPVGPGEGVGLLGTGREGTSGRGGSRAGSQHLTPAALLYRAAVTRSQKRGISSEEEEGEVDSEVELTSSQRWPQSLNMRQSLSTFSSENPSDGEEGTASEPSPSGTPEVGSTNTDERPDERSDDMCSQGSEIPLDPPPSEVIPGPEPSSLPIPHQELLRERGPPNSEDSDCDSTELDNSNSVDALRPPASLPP

[7] = molecular target: Dual specificity protein kinase CLK2 (Homo sapiens, UniProt P49760); assay: Selectivity interaction (SelectScreen profiling (Invitrogen)) EUB0000607a CLK2; conditions: at 2 µM
Sequence of Dual specificity protein kinase CLK2 (P49760 whole entry, looked up): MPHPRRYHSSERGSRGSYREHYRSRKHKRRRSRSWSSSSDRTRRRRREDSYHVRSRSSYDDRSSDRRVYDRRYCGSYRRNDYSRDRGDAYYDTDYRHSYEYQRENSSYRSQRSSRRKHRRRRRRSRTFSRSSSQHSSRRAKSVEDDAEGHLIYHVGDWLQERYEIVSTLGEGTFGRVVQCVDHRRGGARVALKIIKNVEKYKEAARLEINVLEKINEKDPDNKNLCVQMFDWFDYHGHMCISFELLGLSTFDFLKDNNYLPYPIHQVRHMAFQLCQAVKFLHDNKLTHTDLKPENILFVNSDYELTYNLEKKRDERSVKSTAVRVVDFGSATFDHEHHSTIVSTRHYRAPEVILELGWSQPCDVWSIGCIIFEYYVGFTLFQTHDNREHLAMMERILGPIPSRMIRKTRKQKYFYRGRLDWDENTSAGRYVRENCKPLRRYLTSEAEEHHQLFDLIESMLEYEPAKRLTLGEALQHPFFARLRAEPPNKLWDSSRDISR

[8] = molecular target: T4, Phosphatidylinositol 5-phosphate 4-kinase type-2 beta (Homo sapiens) (UniProt P78356); assay: Selectivity interaction (KinomeScan (DiscoverX)) EUB0000092b PIP4K2B; conditions: at 10 µM
T4 sequence (whole entry): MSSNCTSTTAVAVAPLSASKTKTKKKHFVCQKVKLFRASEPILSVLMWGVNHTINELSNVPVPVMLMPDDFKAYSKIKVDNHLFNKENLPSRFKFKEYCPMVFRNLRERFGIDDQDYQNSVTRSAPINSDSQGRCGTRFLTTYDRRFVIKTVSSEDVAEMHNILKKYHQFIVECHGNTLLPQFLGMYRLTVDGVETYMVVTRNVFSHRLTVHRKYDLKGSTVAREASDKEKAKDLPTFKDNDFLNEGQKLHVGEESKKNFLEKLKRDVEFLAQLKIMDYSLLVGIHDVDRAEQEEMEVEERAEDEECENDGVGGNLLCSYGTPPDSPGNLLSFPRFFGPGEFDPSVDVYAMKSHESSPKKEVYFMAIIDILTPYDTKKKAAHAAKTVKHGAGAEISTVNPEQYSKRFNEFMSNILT

Sequence of Serine/threonine-protein kinase PAK 6 (Homo sapiens) (Q9NQU5 whole entry, looked up): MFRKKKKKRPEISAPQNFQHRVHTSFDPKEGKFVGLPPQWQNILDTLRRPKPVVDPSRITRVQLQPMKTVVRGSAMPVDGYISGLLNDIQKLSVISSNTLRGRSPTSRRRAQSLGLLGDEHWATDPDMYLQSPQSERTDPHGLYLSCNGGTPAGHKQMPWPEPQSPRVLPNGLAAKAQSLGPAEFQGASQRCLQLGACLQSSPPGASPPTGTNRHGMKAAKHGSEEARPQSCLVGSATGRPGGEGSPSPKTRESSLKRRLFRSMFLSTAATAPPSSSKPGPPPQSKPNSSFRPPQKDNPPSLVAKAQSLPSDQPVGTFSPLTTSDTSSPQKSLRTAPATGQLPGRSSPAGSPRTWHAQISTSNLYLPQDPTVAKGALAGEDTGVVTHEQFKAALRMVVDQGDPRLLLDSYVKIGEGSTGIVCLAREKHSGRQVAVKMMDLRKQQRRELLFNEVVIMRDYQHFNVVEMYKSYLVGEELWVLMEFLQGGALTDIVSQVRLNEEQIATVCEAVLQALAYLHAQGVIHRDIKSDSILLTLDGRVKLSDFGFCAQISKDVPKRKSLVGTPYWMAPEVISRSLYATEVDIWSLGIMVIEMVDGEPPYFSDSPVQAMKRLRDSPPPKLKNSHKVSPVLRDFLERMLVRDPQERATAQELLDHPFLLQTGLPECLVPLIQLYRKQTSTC

Question: Which % of control [1] does the source give for `COCC(=O)NC/C=C/c1ccc2ncnc(Nc3ccc(Oc4ccc(C)nc4)c(C)c3)c2c1` [CP-724714] here?
Answer: 87%

Question: What about the % of control [2] of the same molecule?
Answer: 98%

Question: Which % of inhibition [3] does the source give for `Cn1cc(-n2cnc3c(NCc4nc5cc(Cl)c(Cl)cc5[nH]4)nc(N4CCOCC4)nc32)cn1` here?
Answer: -18.9%

Question: What about the % of inhibition [4] of the same molecule?
Answer: -44.9%

Question: With `O=C(NOC[C@H](O)CO)c1ccc(F)c(F)c1Nc1ccc(I)cc1F` as the molecule, how does the % of control [5] read?
Answer: 100%

Question: How did the % of control [6] turn out when `COc1cc(Nc2nc(C)cc(-c3cnn4nc(OC)ccc34)n2)cc(C(F)(F)F)c1` was run?
Answer: 92%

Question: `CNC(=O)Nc1ccc(-c2nc(N3CC4CCC(C3)O4)c3cnn(C4CCC5(CC4)OCCO5)c3n2)cc1` was tested. Which % of inhibition [7] did it give?
Answer: 0%

Question: With `CCC(=O)N1CCN(c2ccc(-n3c(=O)ccc4cnc5ccc(-c6cnc7ccccc7c6)cc5c43)cc2C(F)(F)F)CC1` as the molecule, how does the % of control [8] read?
Answer: 100%

Reference: ChEMBL document CHEMBL5465560, “Selectivity Literature for EUbOPEN Chemogenomic Library” (2024)
